Data published in EP4800013A1, “PARG INHIBITOR” (Shanghai Qilu Pharmaceutical Research and Development …, priority 2023, dated 2025).

Legend:
[1] = Pharmacokinetic evaluation in BALB/c nude mice (PO); format: in vivo; settings: female, mouse, plasma, 30 mg/kg
Protocol: Using mice as test animals, the compounds of the present disclosure were administered via intravenous bolus and oral injection. Plasma samples were collected at specific time points. Compound concentrations in plasma were determined by LC-MS/MS, and PK parameters were calculated to characterize the pharmacokinetic behavior of the compounds of the present disclosure in plasma.
BALB/c nude mice, female, supplied by Jiangsu GemPharmatech Co., Ltd.
Dosing regimen for BALB/c nude mice: The PO (oral) experimental group consisted of 3 mice, which were administered at a dose of 30 mg/kg and a volume of 10 mL/kg. The dosing vehicle was 5% (v/v) DMSO/10% (v/v) Solutol/85% (v/v) saline.
Following administration, 0.025 mL of blood was collected via venipuncture at the following time points: 0.0833 (IV), 0.25, 0.5, 1, 2, 4, 8, and 24 hours. Blood samples were collected into EDTA-K2 tubes and centrifuged at 4°C and 2000 g for 10 minutes to separate plasma, which was stored at -80°C.
Mouse plasma processing: • 1) 15 µL of plasma was mixed with 200 µL of acetonitrile for protein precipitation. The mixture was vortexed and centrifuged for 15 minutes. • 2) The supernatant after processing was diluted with water and analyzed by LC/MS/MS to determine the concentration of the test compound.
Pharmacokinetic parameters were calculated using WinNonlin 6.1. Specifically, Cmax represents maximum plasma concentration, CL represents clearance, Vss represents volume of distribution at steady state, T1/2 represents terminal elimination half-life, MRTInf represents mean residence time, AUC represents area under the plasma concentration-time curve, and F represents bioavailability. Table 18: Pharmacokinetic parameters of the compounds of the present disclosure in CD-1 mice

KURAMOCHI cells = experiment: Inhibition of proliferation of KURAMOCHI cells (CellTiter-Glo, intracellular ATP); format: cell-based; settings: 168 h, incubated for 7 days, read-out: IC50 against KURAMOCHI cells
Procedure, shortened: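 KURAMOCHI cells seeded at 4000/well, incubated overnight, then treated with 9-point 1:4 compound series from 10 µM (0.5% DMSO) for 7 days at 37°C, 5% CO2. Viability read by CellTiter-Glo luminescence; inhibition normalised to medium-only (100%) and DMSO (0%) controls, IC50 from variable-slope four-parameter fit.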

Compound	AUC [1]	Cmax [1]	MRT inf [1]	half-life [1]	IC50 (KURAMOCHI cells)
CCc1nc2n(-c3nnc(C(F)F)s3)c3cc(S(=O)(=O)NC4(C)CC4)cc(N4C[C@H](C)N[C@@H](C)C4)c3n2n1 [Compound 065R]	9.52 µM·h	1620 nM	4.39 h	157 min	2 nM
C[C@H]1CN(c2cc(S(=O)(=O)NC3(C)CC3)cc3c2n2nc(C(F)F)nc2n3-c2nnc(C(F)F)s2)C[C@H](C)N1 [Compound 065S]	9.21 µM·h	1340 nM	4.8 h	161 min	2 nM
C[C@H]1CN(c2cc(S(=O)(=O)NC3(C)CC3)cc3c2n2nc(C(F)(F)F)nc2n3-c2nnc(C(F)F)s2)C[C@H](C)N1 [Compound 065W]	16.4 µM·h	1340 nM	7.74 h	317 min	4 nM
